Test results: ChEMBL document CHEMBL3808337, “Rapid Discovery of Pyrido[3,4-d]pyrimidine Inhibitors of Monopolar Spindle Kinase 1 (MPS1) Using a Structure-Based Hybridization Approach” (J Med Chem, 2016)
pIC50, pKi: −log10 of the molar value.

Legend:
Cytochrome P450 2D6 = Cytochrome P450 2D6 (Homo sapiens, UniProt P10635)
Cytochrome P450 2C9 = Cytochrome P450 2C9 (Homo sapiens, UniProt P11712); test: Inhibition of CYP2C9 (unknown origin); type: ADME
Cytochrome P450 3A4 = Cytochrome P450 3A4 (Homo sapiens, UniProt P08684)
Sequence of Cytochrome P450 3A4 (P08684 whole entry): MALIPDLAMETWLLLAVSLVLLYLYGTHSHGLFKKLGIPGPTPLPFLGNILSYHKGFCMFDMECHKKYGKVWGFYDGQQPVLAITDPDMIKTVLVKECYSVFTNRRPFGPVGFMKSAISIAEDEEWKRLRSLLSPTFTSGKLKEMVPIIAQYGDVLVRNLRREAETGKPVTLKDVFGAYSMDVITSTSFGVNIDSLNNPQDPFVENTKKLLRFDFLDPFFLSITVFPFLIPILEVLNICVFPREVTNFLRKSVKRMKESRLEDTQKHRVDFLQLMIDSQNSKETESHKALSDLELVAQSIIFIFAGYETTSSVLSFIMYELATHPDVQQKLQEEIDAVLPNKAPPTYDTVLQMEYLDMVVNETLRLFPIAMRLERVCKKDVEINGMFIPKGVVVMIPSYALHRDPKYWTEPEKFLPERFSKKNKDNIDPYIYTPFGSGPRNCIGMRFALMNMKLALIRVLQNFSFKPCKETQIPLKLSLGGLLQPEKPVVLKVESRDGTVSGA

Cytochrome P450 2C19 = Cytochrome P450 2C19 (Homo sapiens, UniProt P33261); test: Inhibition of CYP2C19 (unknown origin); type: ADME
Sequence of Cytochrome P450 2C19 (P33261 whole entry): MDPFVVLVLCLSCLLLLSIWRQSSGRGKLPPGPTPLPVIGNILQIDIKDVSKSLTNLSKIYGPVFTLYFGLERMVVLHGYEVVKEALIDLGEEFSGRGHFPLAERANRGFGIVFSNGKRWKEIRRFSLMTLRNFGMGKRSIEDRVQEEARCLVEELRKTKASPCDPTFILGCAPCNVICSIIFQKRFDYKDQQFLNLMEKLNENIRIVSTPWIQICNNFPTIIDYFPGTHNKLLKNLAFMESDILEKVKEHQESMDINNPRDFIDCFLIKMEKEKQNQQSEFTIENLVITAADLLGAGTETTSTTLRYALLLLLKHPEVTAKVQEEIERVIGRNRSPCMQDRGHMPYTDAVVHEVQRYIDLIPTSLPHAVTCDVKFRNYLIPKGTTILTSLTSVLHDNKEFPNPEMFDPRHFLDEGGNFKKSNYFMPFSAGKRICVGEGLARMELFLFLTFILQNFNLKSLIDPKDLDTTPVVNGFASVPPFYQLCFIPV

Cytochrome P450 1A2 = target: T1, Cytochrome P450 1A2 (Homo sapiens, UniProt P05177); test: Inhibition of CYP1A2 (unknown origin); type: ADME
T1 sequence (P05177 whole entry): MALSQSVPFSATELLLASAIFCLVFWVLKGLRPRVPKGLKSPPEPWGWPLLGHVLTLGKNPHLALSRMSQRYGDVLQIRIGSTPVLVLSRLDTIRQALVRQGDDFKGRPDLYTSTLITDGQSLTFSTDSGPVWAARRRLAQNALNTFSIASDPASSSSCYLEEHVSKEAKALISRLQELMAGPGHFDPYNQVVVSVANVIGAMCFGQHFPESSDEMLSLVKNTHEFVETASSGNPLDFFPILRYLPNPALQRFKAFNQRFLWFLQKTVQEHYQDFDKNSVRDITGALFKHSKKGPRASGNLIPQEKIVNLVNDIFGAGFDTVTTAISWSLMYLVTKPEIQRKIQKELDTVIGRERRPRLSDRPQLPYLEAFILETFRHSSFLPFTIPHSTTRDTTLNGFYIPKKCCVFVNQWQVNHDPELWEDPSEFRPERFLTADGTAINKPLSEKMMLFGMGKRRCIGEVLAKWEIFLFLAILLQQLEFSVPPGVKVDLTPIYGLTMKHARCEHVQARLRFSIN

[1] = Drug metabolism in CD1 mouse liver microsomes at 10 uM after 30 mins by LCMS analysis; type: ADME; conditions: read-out: Drug metabolism
CDK2/Cyclin A2 = CDK2/Cyclin A2 (Homo sapiens, UniProt P24941)
[2] = Antiproliferative activity against human HCT116 cells assessed as cell viability after 72 hrs by MTT assay; type: functional; conditions: HCT-116, 72 h

Sequence of Cytochrome P450 2C9 (P11712 whole entry): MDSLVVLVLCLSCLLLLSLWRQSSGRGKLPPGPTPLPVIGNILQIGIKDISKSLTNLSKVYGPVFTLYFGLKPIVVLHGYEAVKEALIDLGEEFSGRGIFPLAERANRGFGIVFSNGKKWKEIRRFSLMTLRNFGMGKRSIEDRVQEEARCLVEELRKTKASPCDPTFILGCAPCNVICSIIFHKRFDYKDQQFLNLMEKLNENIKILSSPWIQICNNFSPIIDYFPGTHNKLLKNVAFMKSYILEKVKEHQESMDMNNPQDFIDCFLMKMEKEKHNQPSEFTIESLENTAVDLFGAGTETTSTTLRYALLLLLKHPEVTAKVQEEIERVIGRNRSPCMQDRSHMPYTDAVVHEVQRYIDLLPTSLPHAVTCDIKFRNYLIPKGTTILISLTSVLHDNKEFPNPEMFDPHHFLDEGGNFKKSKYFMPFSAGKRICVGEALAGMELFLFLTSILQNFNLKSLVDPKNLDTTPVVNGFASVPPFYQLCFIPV
Sequence of Cytochrome P450 2D6 (P10635 whole entry): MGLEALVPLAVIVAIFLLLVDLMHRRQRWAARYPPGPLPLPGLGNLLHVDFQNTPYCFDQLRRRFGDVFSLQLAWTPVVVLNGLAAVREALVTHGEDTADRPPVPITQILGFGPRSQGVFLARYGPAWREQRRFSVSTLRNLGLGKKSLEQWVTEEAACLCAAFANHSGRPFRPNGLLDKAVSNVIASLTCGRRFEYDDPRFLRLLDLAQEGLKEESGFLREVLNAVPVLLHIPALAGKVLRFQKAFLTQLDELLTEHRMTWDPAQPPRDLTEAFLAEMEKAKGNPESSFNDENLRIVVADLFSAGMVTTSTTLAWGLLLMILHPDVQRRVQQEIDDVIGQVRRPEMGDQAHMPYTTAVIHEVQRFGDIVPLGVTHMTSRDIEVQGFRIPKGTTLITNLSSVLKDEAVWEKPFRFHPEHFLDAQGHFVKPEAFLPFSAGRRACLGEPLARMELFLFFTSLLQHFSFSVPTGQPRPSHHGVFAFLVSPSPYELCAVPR

| metabolised at 0.5 h, 10 µM [1] [%] | Compound | GI50 [2] [nM] | other results |
| --- | --- | --- | --- |
| 22 | COc1cc(-c2cnn(C)c2)ccc1Nc1ncc2ccnc(NC3CCCCC3)c2n1 | 120 | pIC50 (CDK2/Cyclin A2): 6.72; pKi (CDK2/Cyclin A2): 7.00 |
| 51 | COc1cc(-c2cnn(C)c2)ccc1Nc1ncc2ccnc(C3CC3)c2n1 | – | – |
| 25 | COc1cc(-c2cnn(C)c2)ccc1Nc1ncc2ccnc(N[C@H](C)C(C)(C)C)c2n1 | 220 | – |
| 31 | COc1cc(-c2cnn(C)c2)ccc1Nc1ncc2ccnc(NCC(C)(C)C)c2n1 | 340 | – |

Further lines, the molecule ahead of its results:

| Compound | metabolised at 0.5 h, 10 µM [1] [%] | GI50 [2] [nM] | other results |
| --- | --- | --- | --- |
| Cn1cc(-c2cc3cnc(Nc4ccc(-c5cncn5C)cc4Cl)cc3n2C(=O)OC(C)(C)C)cn1 | – | – | pIC50 (Cytochrome P450 2D6): > 6.00; pIC50 (Cytochrome P450 2C9): > 6.00; pIC50 (Cytochrome P450 3A4): > 6.00; pIC50 (Cytochrome P450 2C19): > 6.00; pIC50 (Cytochrome P450 1A2): > 6.00 |
| CCOc1cc(-c2cnn(C)c2)ccc1Nc1ncc2ccnc(-c3cnn(C)c3)c2n1 | 45 | – | pIC50 (CDK2/Cyclin A2): < 4.35 |
| Cc1cc(-c2cnn(C)c2)ccc1Nc1ncc2ccnc(-c3cnn(C)c3)c2n1 | 63 | – | – |
| COc1cc(-c2cnn(C)c2)ccc1Nc1ncc2ccnc(-c3ccccc3)c2n1 | 40 | – | – |
| COc1cc(-c2cnn(C)c2)ccc1Nc1ncc2ccnc(N3CCCC3)c2n1 | 64 | 470 | – |
